Consider 81 compounds from the METLIN SMRT retention time set (Domingo-Almenara et al. 2019).

The series can be described thus: gradient 5% acetonitrile 3 min, to 50% in 2 min, to 85% in 15 min, held 3 min, 100 µL/min. Conditions: column: Zorbax Extend-C18 2.1 x 50 mm; eluents: water / acetonitrile, 0.1% formic acid. In short, it runs like this:
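Retention times come from adduct peaks that were picked computationally and then checked by hand. The standards, pure and pooled in mixtures of ~100 molecules, were run on a Zorbax Extend-C18 column (2.1 × 50 mm, 1.8 μm) at 100 μL/min with water and acetonitrile, each with 0.1% formic acid. Detection was by quadrupole time-of-flight mass spectrometry in positive and negative ionization mode, with a dead volume of 40 μL and a dwell volume of 900 μL.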
For the compound `Cc1ccc(C)c(-c2csc(Cc3nc(-c4ccc5c(c4)OCO5)no3)n2)c1`, the RP-LC retention time is 1260 s.
In the case of `CCOC(=O)c1nc(N2CCN(c3cc(C)ccc3C)CC2)c2ccccc2n1` it was 1120 s; in that of `CCN1c2ccc(C)cc2C(=O)NC12CCN(C(=O)c1ccc(OC)c(OC)c1)CC2`, 744 s.
Turning to `O=C(NCc1ccc(-c2noc(Cc3ccc(F)cc3)n2)s1)C1CC1`, the RP-LC retention time was found to be 894 s.
Compound `CCc1sc(NC(=O)Cc2c(F)cccc2Cl)nc1-c1ccccc1` registered an RP-LC retention time of 1150 s.
Compound `O=C(Cc1ccsc1)Nc1ccc(-c2nnc3n2CCCC3)cc1` came in with an RP-LC retention time of 648 s.
Take `O=C(Nc1cccc(C(F)(F)F)c1)C1CCc2nc(N3CCOCC3)ncc2C1` (stereo unspecified): the RP-LC retention time stood at 900 s.
Under `Cc1cc(C)cc(C(=O)N2CCCC(C(=O)NCc3cccs3)C2)c1` (stereo unspecified) stands 832 s.
Under `CC(C)CNC(=O)CN1CCN(Cc2cccc(Cl)c2)C1=O` stands 748 s.
In the case of `Cn1cc(C2c3ccccc3C(=O)N2CC(N)=O)c2ccccc21` (stereo unspecified) it was 696 s; in that of `CC(=O)N1CCN(c2nc3c(s2)CC(C(=O)N2CCCCCC2)CC3)CC1` (stereo unspecified), 614 s; in that of `CCCN(CCC)S(=O)(=O)c1cc(-c2nnc(C)o2)co1`, 897 s.
As to `Cc1ccc(-c2noc(Cn3ccn(-c4cc(C)ccc4C)c(=O)c3=O)n2)cc1`, the RP-LC retention time was determined as 950 s.
On to `COc1ccc(OC)c(S(=O)(=O)N2CCCC3(CC2)CNC(=O)O3)c1` (stereo unspecified), for which the RP-LC retention time came to 685 s.
In the case of `CCCCOC(=O)CC1C(=O)NCCN1C(=O)c1cc(Br)ccc1OCC` (stereo unspecified) it was 841 s; in that of `COc1ccc(-c2csc(NC(=O)c3ccc(C)o3)n2)cc1`, 962 s.
The compound `Cc1ccc(C(=O)NCc2cnoc2-c2ccc(F)cc2)cn1` gave an RP-LC retention time of 665 s.
`Fc1ccccc1-c1nnc2sc(-c3ccc4ccccc4n3)nn12` showed an RP-LC retention time of 1080 s.
Under `CCc1ccc(Nc2c(C(=O)N3CCCC(C)C3)cnc3nc(C)ccc23)cc1` (stereo unspecified) stands 702 s; under `CCN1CCN(CCNC(=O)c2cccn2-c2nnc(N3CCCCCC3)s2)CC1`, 600 s; under `Cc1cc(C)cc(NC(=O)Cn2cc(C(=O)N3CCCC3)c(=O)c3ccc(C)nc32)c1`, 758 s.
Compound `O=C(Cc1cccs1)Nc1ccc(OCc2nnc(-c3ccccc3)o2)cc1` returned an RP-LC retention time of 879 s.
Take `COc1ccc(C2CN(S(=O)(=O)c3ccccc3F)CCN2C)cc1` (stereo unspecified): the RP-LC retention time was found to be 670 s.
As to `CC1=C(C(=O)N2CCOCC2)C(c2c(F)cccc2Cl)C2=C(CC(C)(C)CC2=O)N1` (stereo unspecified), the RP-LC retention time was 690 s.
In the case of `CC(C)n1cnc(S(=O)(=O)N2CCCC(C(=O)Nc3ccc(Br)cc3F)C2)c1` (stereo unspecified) it was 893 s.
In the case of `O=C(NCC1CCCCC1)C1CCN(c2cncnc2N2CCOCC2)CC1` it was 644 s; in that of `O=C(C1=NNc2ccccc2S1(=O)=O)N1CCCCCC1`, 735 s.
Take `COc1ccc(NC(=O)N2C[C@@H]3C[C@H]2C[C@@H]3NS(=O)(=O)c2ccccc2)c(C)c1`: the RP-LC retention time is 764 s.
Turning to `CCCn1c(=O)c(N2CCC(NC(=O)Nc3cccc(C)c3)CC2)nc2ccccc21`, the RP-LC retention time stood at 1030 s.
In turn, `Cc1cccc(-c2noc(Cc3nc(-c4ccc(F)cc4)cs3)n2)c1` gave an RP-LC retention time of 1260 s.
Turning to `Cc1ccc(-c2nc3cccnc3n2CCN2CCN(C(=O)NC3CCCC3)CC2)cc1`, the RP-LC retention time came out at 627 s.
Under `CCOc1ccccc1NC(=O)N1CCC(n2cnc3cc(Cl)ccc3c2=O)CC1` stands 935 s; under `CC(C)CNC(=O)CN1CCN(Cc2ccccc2)C1=O`, 717 s; under `CCOc1ccc(-n2ccn3c(CCCC(=O)NCCc4c[nH]c5ccccc45)nnc3c2=O)cc1`, 761 s.
Regarding `O=C(c1ccc(F)c(F)c1)N1CCCC1c1nc(-c2ccccc2)no1` (stereo unspecified), the RP-LC retention time amounted to 653 s.
In the case of `O=C(CN1CCN(C(=O)Nc2ccc(Br)cc2)CC1=O)NCCC1=CCCCC1` it was 834 s; in that of `COc1ccc(CN2CC3(CCN(S(=O)(=O)c4cccnc4)CC3)C2=O)cc1`, 750 s.
In the case of `CN(C(=O)c1nc(N2CCSCC2)c2cnn(C)c2n1)c1cccc(Cl)c1` it was 842 s.
In the case of `O=C(c1ccco1)N1CCCC1c1nc(C2CCOCC2)no1` (stereo unspecified) it was 673 s; in that of `COc1ccc(N2CC(c3noc(-c4cc(Cl)ccc4OC)n3)CC2=O)cc1` (stereo unspecified), 963 s; in that of `COc1ccc(-c2nc(C)c(C(=O)O)s2)cc1OC`, 730 s.
Compound `O=C(N[C@H]1C[C@@H]2C[C@H]1N(C(=O)Nc1ccc(Cl)cc1F)C2)c1cccs1` showed an RP-LC retention time of 855 s.
On to `Cn1c(SCC(=O)Nc2ncn[nH]2)nc2ccsc2c1=O`, for which the RP-LC retention time was determined as 583 s.
Under `CCc1cc(=O)n(Cc2ncc(C)c(OC)c2C)c(N2CCOCC2)n1` stands 620 s; under `O=C(NCCc1c[nH]c2ccccc12)C(=O)Nc1ccc2c(c1)OCCO2`, 825 s; under `CN(C)C[C@@H]1CN(S(C)(=O)=O)C[C@H]1NC(=O)C1(c2ccccc2)CCCC1`, 663 s.
As for `COC(=O)c1ccc(C(=O)NCC2(CO)CC2)cc1`, the RP-LC retention time is 611 s.
In the case of `CCOC(=O)c1sc(NC(=O)C2CCCN(S(C)(=O)=O)C2)nc1-c1ccccc1` (stereo unspecified) it was 863 s.
Under `CC(C)CNC(=O)CN1C(=O)C2CCCCN2c2ccc(S(=O)(=O)N(C)C)cc21` (stereo unspecified) stands 698 s; under `CCOc1cc(=O)n2c(c1C(=O)Nc1cc(F)cc(F)c1)CCCC2`, 794 s.
Under `COCCN1C(=O)CCC2(CNC(=O)c3cnc(C)cn3)CCC=C12` (stereo unspecified) stands 676 s; under `Cc1ccccc1NC(=O)N1CCc2nc(-c3ccc(Cl)cc3)ncc2C1`, 1020 s.
With `COCCN1CCn2cc(S(=O)(=O)Nc3ccc(F)c(F)c3)cc2C1=O`, the RP-LC retention time came out at 733 s.
Under `Cc1ccccc1-n1c(=O)c2sccc2n(Cc2nc(-c3cccc(Br)c3)no2)c1=O` stands 1110 s; under `Cc1nnc(-c2nnc(NCC(C)C)c3ccccc23)o1`, 652 s; under `CCCC(CCC)C(=O)NCCS(=O)(=O)N1CCN(c2ccccn2)CC1`, 594 s.
As to `CC(C)NC(=O)Cn1c(C2CCCO2)nc2ccccc21` (stereo unspecified), the RP-LC retention time was found to be 585 s.
Consider `Cn1c(CNC(=O)C2CCc3sc(C(=O)N4CCCC4)cc3C2)nc2ccccc21` (stereo unspecified), for which the RP-LC retention time was 602 s.
In the case of `COc1ccccc1CCNC(=O)CCCn1cccc1` it was 774 s.
Under `COc1ccc(C(=O)N2CCn3c(C)nnc3C2)c(OC)c1` stands 557 s; under `CCc1ccc(N2C=NS(=O)(=O)c3cccnc32)cc1`, 853 s; under `COc1ccc(-c2nn3c(-c4ccc5ccccc5n4)nnc3s2)cc1OC`, 886 s.
Under `CCc1nnc2nc(N3CCN(C(=O)c4ccc(N(C)C)cc4)CC3)cc(C)n12` stands 609 s.
`Cc1cc(C)n(Cc2nc(-c3ccc(NC(=O)C4CCCC4)cc3)oc2C)n1` displayed an RP-LC retention time of 931 s.
In the case of `O=S(=O)(c1cccn2cnnc12)N(Cc1ccc(F)cc1)c1ccc(F)c(F)c1` it was 887 s; in that of `Cn1c(C(=O)Nc2ccc(F)cc2Cl)cc2c(=O)oc3ccccc3c21`, 988 s.
Under `COc1ccc(-c2nnc(-c3ccc(OC)c(S(=O)(=O)N(C)C)c3)o2)cc1OC` stands 807 s; under `COCCN1[C@@H]2CCN(C(=O)Nc3ccccc3F)C[C@@]2(C(=O)N2CCOCC2)CCS1(=O)=O`, 676 s; under `O=[N+]([O-])c1ccccc1CSc1nnc2sc3ccccc3n12`, 788 s.
In the case of `O=C(CCc1csc(NS(=O)(=O)c2ccccc2)n1)Nc1nc2ccccc2s1` it was 730 s; in that of `COc1cc(OC)c(NC(=O)COc2cc(C)nc(N3CCCCCC3)n2)cc1Cl`, 659 s.
Turning to `COc1cccc(-c2nnc(SCC(=O)NCc3cccnc3)n2-c2ccccc2)c1`, the RP-LC retention time came out at 573 s.
In turn, `COc1ccccc1-c1noc(C2CCCN2C(=O)Nc2ccccc2C)n1` (stereo unspecified) displayed an RP-LC retention time of 827 s.
Under `Cn1c(N2CCC(C(=O)N3CCN(c4ccccc4F)CC3)CC2)cc(=O)n(C)c1=O` stands 716 s.
`COc1ccc(NC(=O)c2c(C)oc3c2C2=NCCN2C=N3)cc1Cl` registered an RP-LC retention time of 625 s.
Under `Cc1ccc(C(=O)N2CCc3sc(C(=O)N4CCC5(CC4)OCCO5)cc3C2)cc1` stands 793 s.
Regarding `O=C(CN1C(=O)CC(c2ccccc2)S(=O)(=O)c2ccccc21)Nc1ccccc1F` (stereo unspecified), the RP-LC retention time worked out at 871 s.
In the case of `Cc1cc(C)cc(NC(=O)Cc2cn(C)c3ncccc23)c1` it was 689 s.
Under `CCCn1cnc2cc(CNC(=O)CCC3CCCC3)ccc21` stands 649 s.
In the case of `O=C(Nc1ccccc1)C1CCCN(S(=O)(=O)c2cc(-c3noc(C4CCCC4)n3)cs2)C1` (stereo unspecified) it was 1220 s; in that of `COc1ccc(-c2noc(Cn3ncn4nc(-c5ccc(F)cc5)cc4c3=O)n2)cc1OC`, 1000 s.
